Reference: article PMC6015718, “Effect of Polyvalence on the Antibacterial Activity of a Synthetic Peptide Derived from Bovine Lactoferricin against Healthcare-Associated Infectious Pathogens” (BioMed Research International, 2018)
Values joined by “and” are separate entries in the source; they are usually repeats but may differ in a detail not shown here. Identical values can stand only once. Like-named read-outs stand apart in the source and are kept apart here. Positions of bridges follow the written chain, without caps; N, C: chain ends. Non-standard residues stand in square brackets, D forms with d. Residues, ends and D or L forms follow the SMILES beside them. Chains are numbered I, II in the order given. Ahx = NCCCCCC(=O)O

What was measured:
Format in all cases: cell-based
[1] = tested on: Staphylococcus aureus ATCC 25923 (sensitive)
Excerpt: (§1) All microorganisms were purchased from the American Type Culture Collection (ATCC). To determine the antibacterial activity of synthetic peptides against HCAI bacteria, the Staphylococcus aureus strains ATCC 25923 and ATCC 33591 were employed as sensitive and resistant strains, respectively, of a Gram-positive microorganisms species, and Klebsiella pneumoniae ATCC 13883 and ATCC 700603 as sensitive and resistant strains of a Gram-negative species.
(§2) The antibacterial activity assay for peptides and controls was performed according to the National Committee for Clinical Laboratory Standards method M7-A7 [11]. MIC and MBC values were determined using a broth microdilution and growth inhibition method with some modification. Briefly, MIC assays were performed by liquid inhibition growth assay in an untreated sterile 96-well flat-bottom tissue culture plate. Bacteria were cultured overnight on Mueller-Hinton agar (MHA). Three colonies were transferred to 8 mL of Mueller-Hinton broth (MHB) and incubated at 37°C until the mid-exponential phase of growth. The turbidity of the cultures was measured and adjusted spectrophotometrically to McFarland standard 0.5, then diluted to a final concentration of […]. Synthetic antibacterial peptide candidate stock solutions were diluted to final concentrations per well of 200, 100, 50, 25, 12.5, and 6.25 μM. […]
(§3) Wells containing MHB with bacterial inoculum only served as bacterial growth controls. Additional controls included MHB alone and MHB with ciprofloxacin (CIP) (2 μg/mL) and bacteria as a positive control. The microplate was incubated for 24 h at 37°C, and growth inhibition was examined by monitoring the optical density at 620 nm (OD620). MIC was defined as the lowest peptide concentration that inhibited bacteria growth >90%.

[2] = tested on: Klebsiella pneumoniae ATCC 700603 (resistant)
Excerpt: as §1, §2, §3

[3] = tested on: Klebsiella pneumoniae ATCC 13883 (sensitive)
Excerpt: as §1, §2, §3

[4] = tested on: Staphylococcus aureus ATCC 33591 (resistant)
Excerpt: as §1, §2, §3

[5] = tested on: Staphylococcus aureus ATCC 25923 (sensitive); remark: listed apart in the source
Excerpt: as §1
(§4) To determine the MBC, an aliquot from each well of the MIC assay was spread onto MHA. After 18 h at 37°C, the concentration that inhibited bacterial growth was determined. Each of these tests was performed four times. MBC was defined as the lowest concentration of peptide that reduced the number of bacteria by 99.9% in vitro [12].

[6] = tested on: Klebsiella pneumoniae ATCC 700603 (resistant); remark: listed apart in the source
Excerpt: as §1, §4

[7] = tested on: Klebsiella pneumoniae ATCC 13883 (sensitive); remark: listed apart in the source
Excerpt: as §1, §4

[8] = tested on: Staphylococcus aureus ATCC 33591 (resistant); remark: listed apart in the source
Excerpt: as §1, §4

human erythrocytes = experiment: Haemolytic activity; conditions: 6.25-100 μM peptide; human erythrocytes 2% haematocrit in PBS, 2 h 37°C, OD492; n = 2
Description: Human erythrocytes collected from the blood samples of healthy humans were harvested by centrifugation for 7 min at 162 ×g and washed three times in phosphate-buffered saline (PBS). The erythrocytes (2% haematocrit in PBS) were incubated with peptide molecules at several concentrations (6.25, 12.5, 25, 50, and 100 μM), for 2 h at 37°C. PBS was used as a negative control, and sterile distilled water was used as a positive control for haemolysis (100% of haemolysis). The plate was subsequently centrifuged at 1459 ×g for 10 min at 4°C. Aliquots of the supernatants of each well (75 μL) were carefully transferred to a new sterile 96-well plate, and haemolytic activity was evaluated by measuring the OD492 using an Asys Expert Plus Microplate reader. The experiments were performed in duplicate, and peptide haemolysis activity was calculated.
Lastly, to evaluate the effects of the peptides on normal human erythrocytes, their haemolysis activity was investigated (Figure 6). The percentage of haemolytic activity on human red blood cells after 2 hours was determined via the standard microtitre dilution method. The peptide concentration is reported as μM.

N=C(N)NCCC[C@H](NC(=O)[C@H](Cc1c[nH]c2ccccc12)NC(=O)[C@H](CCC(N)=O)NC(=O)[C@H](Cc1c[nH]c2ccccc12)NC(=O)[C@H](CCCNC(=N)N)NC(=O)[C@@H](N)CCCNC(=N)N)C(=O)NCCCC[C@H](NC(=O)[C@H](CCCNC(=N)N)NC(=O)[C@H](Cc1c[nH]c2ccccc12)NC(=O)[C@H](CCC(N)=O)NC(=O)[C@H](Cc1c[nH]c2ccccc12)NC(=O)[C@H](CCCNC(=N)N)NC(=O)[C@@H](N)CCCNC(=N)N)C(=O)NCCCCCC(N)=O [Dimeric] (I: H-RRWQWRK[Ahx]-NH2 / II: H-RRWQWR; amide I:7-II:C; N-terminus assumed)
MIC ([1]; ATCC 25923, 24 h): 6.25 µM | MIC ([1]; S. aureus ATCC 25923 sensitive, MHB, 24 h 37°C, OD620, lowest concentration inhibiting growth >90%, average of four independent experiments in duplicate): 14 µg/mL | MIC ([1]; S. aureus ATCC 25923 sensitive, MHB, 24 h 37°C, OD620, lowest concentration inhibiting growth >90%, average of four independent experiments in duplicate, listed as dimeric): ≥ 14 µg/mL | MIC ([1]; S. aureus ATCC 25923 sensitive, value in parentheses, MHB, 24 h 37°C, OD620, >90% inhibition, average of four independent experiments in duplicate): ≥ 6.25 µM | concentration at which antibacterial activity was displayed (dose-response profile) ([1]; S. aureus sensitive strain, Figure 2): ≥ 14 μg/mL and ≥ 6.25 μM | MIC ([2]; ATCC 700603, 24 h): 12.5 µM | MIC ([2]; K. pneumoniae ATCC 700603 resistant, MHB, 24 h 37°C, OD620, >90% inhibition, average of four independent experiments in duplicate): 27 µg/mL | MIC ([2]; K. pneumoniae ATCC 700603 resistant, MHB, 24 h 37°C, OD620, >90% inhibition, average of four independent experiments in duplicate, listed as dimeric): ≥ 27 µg/mL | MIC ([2]; K. pneumoniae ATCC 700603 resistant, value in parentheses, MHB, 24 h 37°C, OD620, >90% inhibition): ≥ 12,5 µM | concentration at which antibacterial activity was exhibited (dose-response profile) ([2]; K. pneumoniae resistant strain, Figure 3): ≤ 27 μg/mL and ≤ 12,5 μM | MIC ([3]; ATCC 13883, 24 h): 12.5 µM | MIC ([3]; K. pneumoniae ATCC 13883 sensitive, MHB, 24 h 37°C, OD620, >90% inhibition, average of four independent experiments in duplicate): 27 µg/mL | MIC ([3]; K. pneumoniae ATCC 13883 sensitive, MHB, 24 h 37°C, OD620, >90% inhibition, average of four independent experiments in duplicate, listed as dimeric): ≥ 27 µg/mL | MIC ([3]; K. pneumoniae ATCC 13883 sensitive, value in parentheses, MHB, 24 h 37°C, OD620, >90% inhibition): ≥ 12,5 µM | concentration at which antibacterial activity was exhibited (dose-response profile) ([3]; K. pneumoniae sensitive strain, Figure 3): ≤ 27 μg/mL and ≤ 12,5 μM | MIC ([4]; ATCC 33591, 24 h): 25 µM | MIC ([4]; S. aureus ATCC 33591 resistant, MHB, 24 h 37°C, OD620, >90% inhibition, average of four independent experiments in duplicate): 55 µg/mL | MIC ([4]; S. aureus ATCC 33591 resistant, MHB, 24 h 37°C, OD620, >90% inhibition, average of four independent experiments in duplicate, listed as dimeric): ≥ 55 µg/mL | MIC ([4]; S. aureus ATCC 33591 resistant, value in parentheses, MHB, 24 h 37°C, OD620, >90% inhibition): ≥ 25 µM | MBC ([5]; ATCC 25923, 18 h): 50 µM | MBC ([5]; S. aureus ATCC 25923 sensitive, MHA, 18 h 37°C, 99.9% reduction, average of four independent experiments): 110 µg/mL | MBC ([5]; S. aureus ATCC 25923 sensitive, MHA, 18 h 37°C, 99.9% reduction, average of four independent experiments, listed as dimeric): ≥ 110 µg/mL | MBC ([5]; S. aureus ATCC 25923 sensitive, value in parentheses, MHA, 18 h 37°C, 99.9% reduction): ≥ 50 µM | MBC as a function of the MBC of the tetrameric peptide ([5]; S. aureus sensitive strain, from concentrations in μg/mL): 1.9 x MBC | MBC ([6]; ATCC 700603, 18 h): 100 µM | MBC ([6]; K. pneumoniae ATCC 700603 resistant, MHA, 18 h 37°C, 99.9% reduction): 220 µg/mL | MBC as a function of the MBC of the tetrameric peptide ([6]; K. pneumoniae resistant strain, from concentrations in μg/mL): 1.9 x MBC | MBC ([7]; ATCC 13883, 18 h): 25 µM | MBC ([7]; K. pneumoniae ATCC 13883 sensitive, MHA, 18 h 37°C, 99.9% reduction): 55 µg/mL | MBC as a function of the MBC of the tetrameric peptide ([7]; K. pneumoniae sensitive strain, from concentrations in μg/mL): 0.5 x MBC | MBC ([8]; ATCC 33591, 18 h): 50 µM | MBC ([8]; S. aureus ATCC 33591 resistant, MHA, 18 h 37°C, 99.9% reduction): 110 µg/mL | MBC ([8]; S. aureus ATCC 33591 resistant, MHA, 18 h 37°C, 99.9% reduction, listed as dimeric): ≥ 110 µg/mL | MBC ([8]; S. aureus ATCC 33591 resistant, value in parentheses, MHA, 18 h 37°C, 99.9% reduction): ≥ 50 µM | MBC as a function of the MBC of the tetrameric peptide ([8]; S. aureus resistant strain, from concentrations in μg/mL): 1.9 x MBC | haemolysis activity over the concentrations tested (human erythrocytes): < 5%
